Earlier results on one compound are cited in patent US7759338B2, “Soluble 1,4 benzodiazepine compounds and stable salts thereof” (The Regents of the University of Michigan, priority 2006, dated 2010).

As a reminder, the IC50 is the concentration that inhibits the measured activity by half. The LD50 is the dose expected to kill half of the subjects tested.

In series [1] the target is mitochondrial F1Fo-ATPase. The following applies: F1Fo-ATPase inhibition.
Another series concerns rodents. Conditions: two daily doses.

As to `CC[C@H]1/C=C/C=C/C[C@@H](C)[C@H](O)[C@@](C)(O)C(=O)[C@@H](C)[C@H](O)[C@@H](C)C(=O)[C@@H](C)[C@H](O)[C@@H](C)/C=C/C(=O)O[C@@H]2[C@H](C)[C@H](CC1)O[C@]1(CC[C@H](C)[C@H](C[C@@H](C)O)O1)[C@H]2C` [oligomycin], the IC50 in series [1] is 10 nM. In addition, in the series with rodents, the LD50 is 0.5 mg/kg.
